Experiment [1] concerns β1i/LMP2, β5i/LMP7 and β2i/PSMB10 in SK-N-MC^A*02:01 and other EwS cell lines. The experiment can be described thus: Western blot of immunoproteasome subunits in EwS cell lines. The format is cell-based, human. The settings on record: IFN-γ 100U/ml, 24 h.
The subject of experiment [2] is MHC class I on EwS cell lines. Nature of the experiment: flow cytometry of MHC class I on EwS cell lines. The settings on record: IFN-γ 100U/ml, 24 h; W6/32 and BB7.2 mAbs. The format is cell-based, human. (In general: A flow cytometer gives signals particle by particle.)

We go through one substance from paper PMC12000433 (Scientific Reports, 2025).

Regarding “IFN-γ: inflammatory cytokine used to treat EwS cell lines and tumors”, the immunoproteasome subunit expression result in experiment [1] is listed as “induced de novo expression of immunoproteasome subunits”. In experiment [2], the “MHC class I expression” value is on record as “induced MHC class I upregulation”.
